# According to ChEMBL document CHEMBL5244205, “Discovery of tricyclic dipyrrolopyridine derivatives as novel JAK inhibitors” (Bioorg Med Chem, 2017):
# Experiments:
# [1] = Oral availability in Sprague-Dawley rat at 1 mg/kg measured up to 24 hrs by LC-MS/MS analysis; format: ADME, organism-based; details: in vivo
# [2] = biological target: T1, Tyrosine-protein kinase JAK3 (Homo sapiens, UniProt P52333)
# T1 sequence (P52333 whole entry): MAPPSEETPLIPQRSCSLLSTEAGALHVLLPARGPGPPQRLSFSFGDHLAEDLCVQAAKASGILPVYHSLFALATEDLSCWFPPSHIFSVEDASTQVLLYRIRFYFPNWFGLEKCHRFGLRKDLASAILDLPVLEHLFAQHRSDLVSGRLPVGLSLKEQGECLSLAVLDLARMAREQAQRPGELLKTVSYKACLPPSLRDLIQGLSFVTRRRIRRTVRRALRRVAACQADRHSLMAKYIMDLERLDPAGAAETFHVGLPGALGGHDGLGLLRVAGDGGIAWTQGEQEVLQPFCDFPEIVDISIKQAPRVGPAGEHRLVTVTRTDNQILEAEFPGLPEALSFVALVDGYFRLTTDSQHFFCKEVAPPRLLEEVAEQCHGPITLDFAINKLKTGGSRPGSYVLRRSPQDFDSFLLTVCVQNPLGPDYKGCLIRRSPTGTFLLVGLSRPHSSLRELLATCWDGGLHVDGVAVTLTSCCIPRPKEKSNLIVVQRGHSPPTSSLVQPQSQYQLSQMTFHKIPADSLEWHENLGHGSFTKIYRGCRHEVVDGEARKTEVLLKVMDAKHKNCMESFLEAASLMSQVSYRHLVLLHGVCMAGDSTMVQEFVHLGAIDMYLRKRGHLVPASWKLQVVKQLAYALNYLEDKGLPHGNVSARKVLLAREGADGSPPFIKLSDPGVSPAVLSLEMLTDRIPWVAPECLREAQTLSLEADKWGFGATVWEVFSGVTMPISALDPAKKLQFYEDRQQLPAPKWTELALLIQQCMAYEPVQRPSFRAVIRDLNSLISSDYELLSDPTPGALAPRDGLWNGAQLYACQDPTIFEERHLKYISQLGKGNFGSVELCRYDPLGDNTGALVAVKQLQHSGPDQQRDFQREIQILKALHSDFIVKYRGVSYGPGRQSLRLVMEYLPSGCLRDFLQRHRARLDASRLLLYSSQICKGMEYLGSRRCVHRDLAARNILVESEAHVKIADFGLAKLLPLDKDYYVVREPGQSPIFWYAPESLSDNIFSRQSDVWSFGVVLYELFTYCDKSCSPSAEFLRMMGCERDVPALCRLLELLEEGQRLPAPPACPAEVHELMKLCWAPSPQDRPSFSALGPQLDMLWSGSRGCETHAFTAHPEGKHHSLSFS
# Description: Inhibition of human JAK3 kinase domain using biotin-Lyn-substrate-2 as substrate incubated for 1 hr by ELISA
# Angiopoietin-1 receptor = Angiopoietin-1 receptor (Homo sapiens, UniProt Q02763); experiment: Inhibition of TIE2 (unknown origin)
# Sequence of Angiopoietin-1 receptor (Q02763 whole entry): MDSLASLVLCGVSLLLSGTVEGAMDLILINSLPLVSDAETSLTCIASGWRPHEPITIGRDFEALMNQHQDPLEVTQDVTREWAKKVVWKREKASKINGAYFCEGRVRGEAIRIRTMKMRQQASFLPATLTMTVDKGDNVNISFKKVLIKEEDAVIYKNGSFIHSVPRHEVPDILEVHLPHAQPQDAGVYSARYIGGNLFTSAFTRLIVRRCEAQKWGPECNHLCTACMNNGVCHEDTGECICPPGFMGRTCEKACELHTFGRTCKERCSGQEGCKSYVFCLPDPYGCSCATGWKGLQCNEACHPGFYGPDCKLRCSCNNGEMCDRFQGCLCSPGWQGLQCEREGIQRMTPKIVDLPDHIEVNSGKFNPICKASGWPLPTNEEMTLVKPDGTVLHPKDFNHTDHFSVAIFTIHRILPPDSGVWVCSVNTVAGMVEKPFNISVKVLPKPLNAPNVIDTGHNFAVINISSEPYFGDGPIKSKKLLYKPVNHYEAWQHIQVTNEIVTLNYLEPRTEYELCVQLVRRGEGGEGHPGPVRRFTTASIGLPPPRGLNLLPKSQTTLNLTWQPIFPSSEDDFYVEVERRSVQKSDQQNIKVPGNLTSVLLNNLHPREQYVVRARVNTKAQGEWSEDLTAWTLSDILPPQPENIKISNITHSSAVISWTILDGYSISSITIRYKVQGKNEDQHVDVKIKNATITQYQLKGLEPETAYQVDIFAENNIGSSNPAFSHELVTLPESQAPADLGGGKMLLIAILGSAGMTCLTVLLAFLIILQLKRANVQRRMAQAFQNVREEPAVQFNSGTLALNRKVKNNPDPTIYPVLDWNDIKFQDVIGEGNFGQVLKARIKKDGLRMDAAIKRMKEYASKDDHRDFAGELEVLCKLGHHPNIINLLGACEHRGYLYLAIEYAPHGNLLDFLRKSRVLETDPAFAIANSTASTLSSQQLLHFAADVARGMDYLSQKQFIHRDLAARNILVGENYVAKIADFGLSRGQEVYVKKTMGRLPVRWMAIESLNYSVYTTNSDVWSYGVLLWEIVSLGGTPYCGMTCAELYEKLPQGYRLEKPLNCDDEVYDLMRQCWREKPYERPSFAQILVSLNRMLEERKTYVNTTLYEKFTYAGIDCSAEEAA
# [3] = biological target: Tyrosine-protein kinase BTK (Homo sapiens, UniProt Q06187); experiment: Inhibition of BTK (unknown origin)
# Sequence of Tyrosine-protein kinase BTK (Q06187 whole entry): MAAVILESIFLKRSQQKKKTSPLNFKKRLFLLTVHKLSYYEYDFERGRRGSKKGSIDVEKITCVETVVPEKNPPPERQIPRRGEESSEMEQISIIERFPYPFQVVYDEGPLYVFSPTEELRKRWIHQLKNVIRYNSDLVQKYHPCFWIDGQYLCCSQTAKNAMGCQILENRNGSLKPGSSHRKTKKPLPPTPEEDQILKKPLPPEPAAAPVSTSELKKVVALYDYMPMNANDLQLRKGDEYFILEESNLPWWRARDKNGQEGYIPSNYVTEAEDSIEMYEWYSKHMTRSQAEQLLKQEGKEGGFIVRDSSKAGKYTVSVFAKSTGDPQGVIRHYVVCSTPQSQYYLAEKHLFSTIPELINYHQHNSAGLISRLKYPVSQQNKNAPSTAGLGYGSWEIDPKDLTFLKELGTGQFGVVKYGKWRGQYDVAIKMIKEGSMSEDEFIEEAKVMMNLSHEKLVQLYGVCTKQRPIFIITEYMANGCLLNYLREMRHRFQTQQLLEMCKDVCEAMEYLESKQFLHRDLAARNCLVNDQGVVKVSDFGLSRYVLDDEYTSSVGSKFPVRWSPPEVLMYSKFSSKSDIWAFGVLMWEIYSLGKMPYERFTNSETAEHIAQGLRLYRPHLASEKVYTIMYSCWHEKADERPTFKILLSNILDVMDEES
# [4] = biological target: Tyrosine-protein kinase ZAP-70 (Homo sapiens, UniProt P43403); experiment: Inhibition of ZAP70 (unknown origin)
# Sequence of Tyrosine-protein kinase ZAP-70 (P43403 whole entry): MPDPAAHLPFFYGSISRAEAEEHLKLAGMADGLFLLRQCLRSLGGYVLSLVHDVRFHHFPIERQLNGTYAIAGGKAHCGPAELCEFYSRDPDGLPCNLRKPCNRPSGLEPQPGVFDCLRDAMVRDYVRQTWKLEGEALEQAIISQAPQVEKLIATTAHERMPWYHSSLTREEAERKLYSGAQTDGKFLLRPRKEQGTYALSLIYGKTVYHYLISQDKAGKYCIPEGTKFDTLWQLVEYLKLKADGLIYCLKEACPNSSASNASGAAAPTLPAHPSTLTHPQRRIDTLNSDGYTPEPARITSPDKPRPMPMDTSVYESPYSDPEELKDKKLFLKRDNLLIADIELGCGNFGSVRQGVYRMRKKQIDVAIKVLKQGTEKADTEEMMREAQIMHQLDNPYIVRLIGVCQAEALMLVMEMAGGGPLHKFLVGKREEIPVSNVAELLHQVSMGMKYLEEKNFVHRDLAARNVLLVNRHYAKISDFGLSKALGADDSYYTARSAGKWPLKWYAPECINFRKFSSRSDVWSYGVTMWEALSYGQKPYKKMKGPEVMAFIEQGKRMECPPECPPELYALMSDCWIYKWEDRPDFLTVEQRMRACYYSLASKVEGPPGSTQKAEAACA
# [5] = biological target: Tyrosine-protein kinase CSK (Homo sapiens, UniProt P41240); experiment: Inhibition of CSK (unknown origin)
# Sequence of Tyrosine-protein kinase CSK (P41240 whole entry): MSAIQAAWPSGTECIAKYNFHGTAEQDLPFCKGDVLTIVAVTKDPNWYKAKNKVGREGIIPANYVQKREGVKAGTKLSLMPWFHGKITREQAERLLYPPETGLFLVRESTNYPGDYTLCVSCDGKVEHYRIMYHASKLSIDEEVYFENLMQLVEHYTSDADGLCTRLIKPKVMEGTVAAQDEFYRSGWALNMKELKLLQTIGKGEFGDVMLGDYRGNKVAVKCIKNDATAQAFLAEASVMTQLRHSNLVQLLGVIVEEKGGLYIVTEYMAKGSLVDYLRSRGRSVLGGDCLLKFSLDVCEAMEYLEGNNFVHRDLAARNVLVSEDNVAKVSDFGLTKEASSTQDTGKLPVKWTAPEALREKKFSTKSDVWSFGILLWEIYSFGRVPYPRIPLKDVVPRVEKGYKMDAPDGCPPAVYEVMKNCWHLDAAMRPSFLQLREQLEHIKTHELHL
smiles,measurement,setting,value
C[C@@H]1CCN(C(=O)CC#N)C[C@@H]1n1ccc2cnc3[nH]ccc3c21,bioavailability,[1],103%
same,IC50,[2],0.14 nM
same,IC50,Angiopoietin-1 receptor,> 1000 nM
same,IC50,[3],> 1000 nM
same,IC50,[4],> 1000 nM
same,IC50,[5],> 1000 nM
